Experimental data as given in patent US8487096B2, “Imidazo[1,2-B][1,2,4]triazines as C-MET inhibitors” (Incyte Corporation, priority 2010, dated 2013).

Biological target: c-Met kinase (histidine-tagged c-Met catalytic domain fusion protein) (Homo sapiens (Human), UniProt P08581)
Assay: In Vitro c-Met Kinase Enzyme Assays
Assay type: biochemical
Conditions: inhibition of c-Met kinase; phosphorylation of poly Glu-Tyr, 5 μM ATP, 25 minutes at 30° C.
Description: The compounds of the invention were screened in vitro for their ability to inhibit c-Met kinase activity. The IC50 values for the inhibition of c-Met kinase were determined as described in the literature with some modifications (Wang, X. et al, Mol. Cancer. Ther. 2003, 2(11):1085-1092; Calic, M. et al., Croatica Chemical ACTA. 2005, 78(3):367-374). Briefly, histidine-tagged c-Met catalytic domain fusion protein (Invitrogen, # PV3143) was used for the assay. IC50 measurements were based on the degree of phosphorylation of poly Glu-Tyr (Sigma-Aldrich, # PO275) that was coated (0.01 mg/per well) on 96-well microplates (R&D systems, # DY990). The reaction was carried out in a 50 μL solution containing 50 mM HEPES (pH 7.5), 10 mM MnCl2, 10 mM MgCl2, 0.5 mM DTT, 100 μM Na3VO4, 5 μM ATP (Cell Signaling Technology, #9804) and serial dilutions of the test compound. The reaction lasted for 25 minutes at 30° C. After the reaction was completed, the contents of the plates were discarded. Plates were then washed with TBS-T (250 μL/well, 5×) and then blocked with TBS-T containing 1% BSA for 2 hours. The contents of the plates was discarded, and 100 μL (per well) of peroxidase-labeled anti-phospho-tyrosine antibody (Sigma, # A5964) diluted (1:60,000) in 1% BSA containing TBS-T were then added and incubated for 1 hour. Plates were washed with TBS-T (250 μL/well, 5×) and followed by the color reaction using 100 μL (1:1 mixture) of H2O2 and tetramethylbenzidine (R&D Systems, # DY999). The reaction was stopped in minutes with […] of 2 N H2SO4. The optical density was measured immediately using a microplate reader at 450 nm with wavelength correction at 540 nm. IC50 values were calculated with the GraphPad Prism software. The linear range (i.e., the time period over which the rate remained equivalent to the initial rate) was determined for the kinase and IC50 determinations were performied within this range.

c-Met kinase (histidine-tagged c-Met catalytic domain fusion protein), sequence (P08581 1078-1345): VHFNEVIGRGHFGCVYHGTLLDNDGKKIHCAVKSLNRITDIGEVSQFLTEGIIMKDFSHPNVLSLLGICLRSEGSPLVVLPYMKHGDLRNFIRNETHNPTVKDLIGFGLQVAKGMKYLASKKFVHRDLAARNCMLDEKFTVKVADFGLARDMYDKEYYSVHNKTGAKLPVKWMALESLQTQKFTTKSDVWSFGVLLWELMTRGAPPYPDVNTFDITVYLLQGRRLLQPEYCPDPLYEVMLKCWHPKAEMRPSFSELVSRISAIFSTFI

SMILES	IC50
CNC(=O)c1ccc(-c2cnc3ncc(Cc4ccc5ncccc5c4)n3n2)cn1 [Formula IV, N-methyl-5-[7-(quinolin-6-ylmethyl)imidazo[1,2-b][1,2,4]triazin-2-yl]pyridine-2-carboxamide]	0.1 to 1 nM
CNC(=O)c1ccc(-c2cnc3ncc(Cc4ccc5ncccc5c4)n3n2)cc1C [Formula V, N,2-dimethyl-4-[7-(quinolin-6-ylmethyl)imidazo[1,2-b][1,2,4]triazin-2-yl]benzamide]	0.1 to 1 nM
Cc1nc([C@H](C)NC(=O)c2ccc(-c3cnc4ncc(Cc5ccc6ncccc6c5)n4n3)cc2Cl)no1 [Formula III, 2-chloro-N-[(1S)-1-(5-methyl-1,2,4-oxadiazol-3-yl)ethyl]-4-[7-(quinolin-6-ylmethyl)imidazo[1,2-b][1,2,4]triazin-2-yl]benzamide]	0.1 to 1 nM

More lines, now with the values ahead:

IC50	SMILES
0.1 to 1 nM	C[C@@H](O)CNC(=O)c1ccc(-c2cnc3ncc(Cc4ccc5ncccc5c4)n3n2)cc1F [Formula I, 2-fluoro-N-[(2R)-2-hydroxypropyl]-4-[7-(quinolin-6-ylmethyl)imidazo[1,2-b][1,2,4]triazin-2-yl]benzamide]
0.1 to 1 nM	CNC(=O)c1ccc(-c2cnc3ncc(Cc4ccc5ncccc5c4)n3n2)cc1Cl [Formula II, 2-chloro-N-methyl-4-(7-(quinolin-6-ylmethyl)imidazo[1,2-b][1,2,4]triazin-2-yl)benzamide]
